Columns and labels:
Format in all cases: cell-based
[1] = test system: rac1b mRNA in SH-SY5Y cells; assay: Induction of rac1b splicing by oxidative stress, nested PCR of rac1b; conditions: 24 hours, subtoxic concentrations
Method: (§1) To test whether ROS production may affect the rac1/rac1b ratio SH-SY5Y cells were exposed to various ROS-inducing agents at the indicated concentrations for 24 hours and cell viability was determined using a LDH assay (Cytotox96, Promega).
(§2) SH-SY5Y cells were plated in 24 well plates (ATGC, France) at the initial density of 3*10^5 cells/well. After 24 hours, cells were treated with various ROS-inducing agents at the indicated concentrations. After 24 h incubation, a LDH assay was conducted to reveal cell viability and cells were processed for RNA extraction using Trizol.
(§3) To test the effect of ROS producing agents TBH and 6-OHDA on mRNA levels of rac1 and rac1b, SH-SY5Y cells were exposed to various ROS-inducing agents at the indicated concentrations for 24 hours and rac1 and rac1b were either coamplified using primers nm—006908_F1 and nm—006908_R1, or rac1b was specifically amplified in a nested PCR approach that sequentially used primers nm—006908_F1 and nm—006908_R1, then primers nm—006908_F2 and nm—006908_R1. GAPDH was amplified as control.

[2] = test system: rac1 mRNA in SH-SY5Y cells; assay: Effect of oxidative stress on rac1 levels, PCR of rac1; conditions: 24 hours
Method: as §1, §2, §3

[3] = test system: rac1b mRNA in rat primary cortical cells; assay: Induction of rac1b splicing by Abeta, nested PCR of rac1b mRNA; conditions: rat cortical cells exposed to Abeta for 24 hours; observed at 11.25 and 22.5 μM; two independent cultures
Method: Rat primary cortical cell cultures are sensitive to Abeta toxicity, the neurotoxicity of which involves different mechanisms such as calcium homeostasis dysregulation, accumulation of ROS, secondary excitotoxicity and caspase activation (Zhang et al, J Neurochem 1996, 67 (4) 1595-1606). Abeta peptide is dissolved in 100% HFIP (1,1,1,3,3,3-hexafluoro-2-propanol), then dryed out and resuspended in 100% DMSO and rediluted in DMEM/F12 without phenol red. The solution maturates by incubation at 37° C. during 72 h and Aβ oligomers are then added on 7 days cultures for 24 h. After 24 h incubation, cells were processed for RNA extraction using Trizol. A nested PCR approach was used for the amplification rac1b using the following primers: nm—006908_F1: […] (SEQ ID NO 9), nm—006908_R1: TGGCATTGAGTGCGAAGGC (SEQ ID NO 10), nm—006908_F2: AAAGACAAGCCGATTGCCG (SEQ ID NO 11). Rac1 was amplified following the first PCR of the protocol described below using primers nm—006908_F1 and nm—006908_R1. In these conditions, rac1b was not detected on gel due to its low quantity after single PCR amplification and was easily detected using primers nm—006908_F2 and nm—006908_R1 in the nested PCR. […]

For `NCCc1cc(O)c(O)cc1O` [6-OHDA, 6-hydroxydopamine], the “mRNA levels of rac1b” value [1] was “dose dependent accumulation of rac1b” and the “mRNA levels of rac1” value [2] was “rac1 levels are not altered”.

With `CC(C)(C)OO` [TBH, t-butyl hydroperoxide] the “mRNA levels of rac1b” value [1] was “dose dependent accumulation of rac1b” and the “mRNA levels of rac1” value [2] was “rac1 levels are not altered”.

In the case of “Abeta: fragment of Abeta42 containing the aminoacids 25 to 35 that reproduces the toxic mechanisms of Aβ42 (GSNKGAIIGLM; Amyloid-beta protein 42; UniProt P05067 696-706, looked up, fragment)”, the “mRNA levels of rac1b” value [3] is reported as “dose dependent accumulation of rac1b mRNA”.
